Legend:
Format in all cases: in vivo
Set-up in all cases: key: 5=total damage to plant; 0=no damage to plant
[1] = test system: ABUTH = Abutilon theophrasti; assay: Pre-emergence herbicidal activity, glasshouse pot test
Experimental: (§1) Seeds of a variety of test species were sown in standard soil in pots. After cultivation for one day (pre-emergence) under controlled conditions in a glasshouse (at 24/16° C., day/night; 14 hours light; 65% humidity), the plants were sprayed with an aqueous spray solution derived from the formulation of the technical active ingredient in acetone/water (50:50) solution containing 0.5% Tween 20 (polyoxyethelyene sorbitan monolaurate, CAS RN 9005-64-5). The test plants were then grown in a glasshouse under controlled conditions (at 24/16° C., day/night; 14 hours light; 65% humidity) and watered twice daily. After 13 days, the test was evaluated (5=total damage to plant; 0=no damage to plant). Pre- and post-emergence testing was carried out as detailed above on the compounds A1, A2, A4 and A5 and their respective S-enantiomers.

[2] = test system: AMARE = Amaranthus retroflexus; assay: as above
Experimental: as §1

[3] = test system: ECHCG = Echinochloa crus-galli; assay: as above
Experimental: as §1

[4] = test system: LOLPE; assay: as above
Experimental: as §1

[5] = test system: SETFA = Setaria faberi; assay: as above; conditions: for SEFTA damage score (0-5): comparison of enantiomers; for SETFA damage score (0-5): 1000 g/Ha, evaluated after 13 days
Experimental: as §1

[6] = test system: ZEAMX = Zea mays; assay: as above
Experimental: as §1

[7] = test system: ABUTH = Abutilon theophrasti; assay: Post-emergence herbicidal activity, glasshouse pot test
Experimental: (§2) Seeds of a variety of test species were sown in standard soil in pots. After 8 days cultivation (post-emergence) under controlled conditions in a glasshouse (at 24/16° C., day/night; 14 hours light; 65% humidity), the plants were sprayed with an aqueous spray solution derived from the formulation of the technical active ingredient in acetone/water (50:50) solution containing 0.5% Tween 20 (polyoxyethelyene sorbitan monolaurate, CAS RN 9005-64-5). The test plants were then grown in a glasshouse under controlled conditions (at 24/16° C., day/night; 14 hours light; 65% humidity) and watered twice daily. After 13 days, the test was evaluated (5=total damage to plant; 0=no damage to plant). Pre- and post-emergence testing was carried out as detailed above on the compounds A1, A2, A4 and A5 and their respective S-enantiomers.

[8] = test system: AMARE = Amaranthus retroflexus; assay: as above
Experimental: as §2

[9] = test system: ECHCG = Echinochloa crus-galli; assay: as above
Experimental: as §2

[10] = test system: LOLPE; assay: as above
Experimental: as §2

[11] = test system: SETFA = Setaria faberi; assay: as above; conditions: for SEFTA damage score (0-5): comparison of enantiomers; for SETFA damage score (0-5): 1000 g/Ha, evaluated after 13 days
Experimental: as §2

[12] = test system: ZEAMX = Zea mays; assay: as above
Experimental: as §2

[13] = comparison of enantiomers, 62.5 g/Ha
[14] = comparison of enantiomers, 250 g/Ha
[15] = 1000 g/Ha, evaluated after 13 days

CCO[C@H]1C(O)N(c2cc(C(C)(C)C)on2)C(=O)N1C (single isomer, unassigned) [A2 S-enantiomer, reference compound]
1: ABUTH damage score (0-5) [1, 13] | ABUTH damage score (0-5) [1, 14] | LOLPE damage score (0-5) [4, 13] | ZEAMX damage score (0-5) [6, 13] | ZEAMX damage score (0-5) [6, 14] | ABUTH damage score (0-5) [7, 13] | ABUTH damage score (0-5) [7, 14] | ECHCG damage score (0-5) [9, 14] | LOLPE damage score (0-5) [10, 14] | ZEAMX damage score (0-5) [12, 14]
0: ECHCG damage score (0-5) [3, 13] | SEFTA damage score (0-5) ([5]; 250 g/Ha) | ECHCG damage score (0-5) [9, 13] | LOLPE damage score (0-5) [10, 13] | SEFTA damage score (0-5) ([11]; 62.5 g/Ha)
3: ECHCG damage score (0-5) [3, 14]
5: AMARE damage score (0-5) [2, 13] | AMARE damage score (0-5) [2, 14] | AMARE damage score (0-5) [8, 13] | AMARE damage score (0-5) [8, 14]

CCO[C@@H]1C(O)N(c2cc(C(C)(C)C)on2)C(=O)N1C (single isomer, unassigned) [Example A2]
2: ZEAMX damage score (0-5) [6, 15]
1: SETFA damage score (0-5) [5]
3: ABUTH damage score (0-5) [1, 13] | ABUTH damage score (0-5) [1, 14] | LOLPE damage score (0-5) [4, 13] | SEFTA damage score (0-5) ([11]; 62.5 g/Ha)
4: ECHCG damage score (0-5) [3, 15] | ECHCG damage score (0-5) [3, 14] | ZEAMX damage score (0-5) [6, 13] | ZEAMX damage score (0-5) [6, 14] | ZEAMX damage score (0-5) [12, 15]
5: ABUTH damage score (0-5) [1, 15] | AMARE damage score (0-5) [2, 15] | AMARE damage score (0-5) [2, 13] | AMARE damage score (0-5) [2, 14] | ECHCG damage score (0-5) [3, 13] | SEFTA damage score (0-5) ([5]; 250 g/Ha) | ABUTH damage score (0-5) [7, 15] | ABUTH damage score (0-5) [7, 13] | ABUTH damage score (0-5) [7, 14] | AMARE damage score (0-5) [8, 15] | AMARE damage score (0-5) [8, 13] | AMARE damage score (0-5) [8, 14] | ECHCG damage score (0-5) [9, 15] | ECHCG damage score (0-5) [9, 13] | ECHCG damage score (0-5) [9, 14] | LOLPE damage score (0-5) [10, 14] | SETFA damage score (0-5) [11] | ZEAMX damage score (0-5) [12, 13] | ZEAMX damage score (0-5) [12, 14]

CO[C@H]1C(O)N(c2cc(C(C)(C)C)on2)C(=O)N1C (stereo partly drawn) [A1 S-enantiomer, reference compound]
2: ABUTH damage score (0-5) [7, 14] | SEFTA damage score (0-5) ([11]; 250 g/Ha)
1: ECHCG damage score (0-5) [9, 13] | ECHCG damage score (0-5) [9, 14] | LOLPE damage score (0-5) [10, 14] | ZEAMX damage score (0-5) [12, 13] | ZEAMX damage score (0-5) [12, 14]
0: ABUTH damage score (0-5) [1, 13] | ABUTH damage score (0-5) [1, 14] | ECHCG damage score (0-5) [3, 13] | ECHCG damage score (0-5) [3, 14] | LOLPE damage score (0-5) [4, 13] | LOLPE damage score (0-5) [4, 14] | SEFTA damage score (0-5) ([5]; 62.5 g/Ha) | SEFTA damage score (0-5) ([5]; 250 g/Ha) | ZEAMX damage score (0-5) [6, 13] | ZEAMX damage score (0-5) [6, 14] | ABUTH damage score (0-5) [7, 13] | LOLPE damage score (0-5) [10, 13] | SEFTA damage score (0-5) ([11]; 62.5 g/Ha)
5: AMARE damage score (0-5) [2, 13] | AMARE damage score (0-5) [2, 14] | AMARE damage score (0-5) [8, 13] | AMARE damage score (0-5) [8, 14]

COC[C@H]1C(O)N(c2cc(C(C)(C)C)on2)C(=O)N1C (stereo partly drawn) [A4 S-enantiomer, reference compound]
3: AMARE damage score (0-5) [2, 14]
2: AMARE damage score (0-5) [8, 14]
1: AMARE damage score (0-5) [2, 13] | ECHCG damage score (0-5) [9, 14]
0: ABUTH damage score (0-5) [1, 13] | ABUTH damage score (0-5) [1, 14] | ECHCG damage score (0-5) [3, 13] | ECHCG damage score (0-5) [3, 14] | LOLPE damage score (0-5) [4, 13] | LOLPE damage score (0-5) [4, 14] | SEFTA damage score (0-5) ([5]; 62.5 g/Ha) | SEFTA damage score (0-5) ([5]; 250 g/Ha) | ZEAMX damage score (0-5) [6, 13] | ZEAMX damage score (0-5) [6, 14] | ABUTH damage score (0-5) [7, 13] | ABUTH damage score (0-5) [7, 14] | AMARE damage score (0-5) [8, 13] | ECHCG damage score (0-5) [9, 13] | LOLPE damage score (0-5) [10, 13] | LOLPE damage score (0-5) [10, 14] | SEFTA damage score (0-5) ([11]; 62.5 g/Ha) | SEFTA damage score (0-5) ([11]; 250 g/Ha) | ZEAMX damage score (0-5) [12, 13] | ZEAMX damage score (0-5) [12, 14]

CCO[C@H]1C(O)N(c2cc(C(C)(C)F)on2)C(=O)N1C (stereo partly drawn) [A5 S-enantiomer, reference compound]
0: ABUTH damage score (0-5) [1, 13] | ABUTH damage score (0-5) [1, 14] | ECHCG damage score (0-5) [3, 13] | ECHCG damage score (0-5) [3, 14] | LOLPE damage score (0-5) [4, 13] | LOLPE damage score (0-5) [4, 14] | SEFTA damage score (0-5) ([5]; 62.5 g/Ha) | SEFTA damage score (0-5) ([5]; 250 g/Ha) | ZEAMX damage score (0-5) [6, 13] | ZEAMX damage score (0-5) [6, 14] | ABUTH damage score (0-5) [7, 13] | ECHCG damage score (0-5) [9, 13] | ECHCG damage score (0-5) [9, 14] | LOLPE damage score (0-5) [10, 13] | LOLPE damage score (0-5) [10, 14] | SEFTA damage score (0-5) ([11]; 62.5 g/Ha) | ZEAMX damage score (0-5) [12, 13] | ZEAMX damage score (0-5) [12, 14]
5: AMARE damage score (0-5) [2, 13] | AMARE damage score (0-5) [2, 14] | AMARE damage score (0-5) [8, 14]
1: ABUTH damage score (0-5) [7, 14] | AMARE damage score (0-5) [8, 13] | SEFTA damage score (0-5) ([11]; 250 g/Ha)

CO[C@@H]1C(O)N(c2cc(C(C)(C)C)on2)C(=O)N1C (stereo partly drawn) [Example A1]
4: ABUTH damage score (0-5) [1, 13] | SEFTA damage score (0-5) ([5]; 62.5 g/Ha) | ZEAMX damage score (0-5) [6, 13]
1: LOLPE damage score (0-5) [4, 13]
5: ABUTH damage score (0-5) [1, 15] | AMARE damage score (0-5) [2, 15] | AMARE damage score (0-5) [2, 13] | AMARE damage score (0-5) [2, 14] | ECHCG damage score (0-5) [3, 15] | ECHCG damage score (0-5) [3, 13] | ECHCG damage score (0-5) [3, 14] | LOLPE damage score (0-5) [4, 15] | LOLPE damage score (0-5) [4, 14] | SETFA damage score (0-5) [5] | SEFTA damage score (0-5) ([5]; 250 g/Ha) | ZEAMX damage score (0-5) [6, 14] | ABUTH damage score (0-5) [7, 15] | ABUTH damage score (0-5) [7, 14] | AMARE damage score (0-5) [8, 15] | AMARE damage score (0-5) [8, 13] | AMARE damage score (0-5) [8, 14] | ECHCG damage score (0-5) [9, 15] | ECHCG damage score (0-5) [9, 13] | ECHCG damage score (0-5) [9, 14] | LOLPE damage score (0-5) [10, 15] | LOLPE damage score (0-5) [10, 13] | LOLPE damage score (0-5) [10, 14] | SETFA damage score (0-5) [11] | SEFTA damage score (0-5) ([11]; 62.5 g/Ha) | SEFTA damage score (0-5) ([11]; 250 g/Ha) | ZEAMX damage score (0-5) [12, 15] | ZEAMX damage score (0-5) [12, 13] | ZEAMX damage score (0-5) [12, 14]
3: ZEAMX damage score (0-5) [6, 15]
2: ABUTH damage score (0-5) [1, 14] | ABUTH damage score (0-5) [7, 13]

COC[C@@H]1C(O)N(c2cc(C(C)(C)C)on2)C(=O)N1C (stereo partly drawn) [Example A4, (4R)-1-(5-tert-butylisoxazol-3-yl)-5-hydroxy-4-(methoxymethyl)-3-methyl-imidazolidin-2-one]
3: ABUTH damage score (0-5) [1, 14] | ZEAMX damage score (0-5) [6, 15]
5: ABUTH damage score (0-5) [1, 15] | AMARE damage score (0-5) [2, 15] | AMARE damage score (0-5) [2, 13] | AMARE damage score (0-5) [2, 14] | ECHCG damage score (0-5) [3, 15] | ECHCG damage score (0-5) [3, 14] | LOLPE damage score (0-5) [4, 15] | LOLPE damage score (0-5) [4, 14] | SEFTA damage score (0-5) ([5]; 250 g/Ha) | ABUTH damage score (0-5) [7, 15] | ABUTH damage score (0-5) [7, 14] | AMARE damage score (0-5) [8, 15] | AMARE damage score (0-5) [8, 13] | AMARE damage score (0-5) [8, 14] | ECHCG damage score (0-5) [9, 15] | ECHCG damage score (0-5) [9, 14] | LOLPE damage score (0-5) [10, 15] | LOLPE damage score (0-5) [10, 14] | SETFA damage score (0-5) [11] | SEFTA damage score (0-5) ([11]; 250 g/Ha) | ZEAMX damage score (0-5) [12, 15] | ZEAMX damage score (0-5) [12, 14]
4: SETFA damage score (0-5) [5] | ZEAMX damage score (0-5) [6, 14]
1: ABUTH damage score (0-5) [1, 13] | ECHCG damage score (0-5) [3, 13] | ABUTH damage score (0-5) [7, 13] | LOLPE damage score (0-5) [10, 13] | SEFTA damage score (0-5) ([11]; 62.5 g/Ha)
0: LOLPE damage score (0-5) [4, 13] | ZEAMX damage score (0-5) [6, 13] | ECHCG damage score (0-5) [9, 13]

Source: patent US20170121319A1, “Herbicidal Compounds” (Syngenta Participations AG, priority 2014, published 2017)
